Patent US20050197350A1, “Novel quinoline, tetrahydroquinazoline, and pyrimidine derivatives and methods of treatment related to the use thereof” (TAISHO PHARMACEUTICAL CO., LTD., priority 2003, published 2005)

system: MCH receptors; assay: MCH receptor activity class (method not given); details: class by percent of control at 10^−7 M or IC50

Row | SMILES | class
1 | Cc1cc(N(C)C)nc(N[C@H]2CC[C@@H](CNC(=O)c3ccc(F)c(F)c3)CC2)n1 [compound 2753, N-[(cis-4-{[4-(dimethylamino)-6-methylpyrimidin-2-yl]amino}cyclohexyl)methyl]-3,4-difluorobenzamide] | 3 (Class 3 The value of percent of control at 10^−7 M was more than 60% or the value of IC50 was more than 200 nM.)
2 | COc1ccc(C(=O)NC[C@H]2CC[C@@H](Nc3nc(C)cc(N(C)C)n3)CC2)cc1 [compound 2754] | 3 (Class 3 The value of percent of control at 10^−7 M was more than 60% or the value of IC50 was more than 200 nM.)
3 | Cc1cc(N(C)C)nc(N[C@H]2CC[C@@H](CNC(=O)c3ccc(C)c(F)c3)CC2)n1 [compound 2755] | 2 (Class 2: The value of percent of control at 10^−7 M was from 40% to 60% or the value of IC′50 was from 50 nM to 200 nM.)
4 | Cc1cc(N(C)C)nc(N[C@H]2CC[C@@H](CNC(=O)c3ccc(F)c(C)c3)CC2)n1 [compound 2756] | 3 (Class 3 The value of percent of control at 10^−7 M was more than 60% or the value of IC50 was more than 200 nM.)
5 | Cc1cc(N(C)C)nc(N[C@H]2CC[C@@H](CNC(=O)c3cccc(C(F)(F)F)c3)CC2)n1 [compound 2757] | 3 (Class 3 The value of percent of control at 10^−7 M was more than 60% or the value of IC50 was more than 200 nM.)
6 | Cc1cc(N(C)C)nc(N[C@H]2CC[C@@H](CNC(=O)c3ccc(C(F)(F)F)cc3)CC2)n1 [compound 2758] | 2 (Class 2: The value of percent of control at 10^−7 M was from 40% to 60% or the value of IC′50 was from 50 nM to 200 nM.)
7 | Cc1cc(N(C)C)nc(N[C@H]2CC[C@@H](CNC(=O)c3cccc(OC(F)(F)F)c3)CC2)n1 [compound 2759] | 3 (Class 3 The value of percent of control at 10^−7 M was more than 60% or the value of IC50 was more than 200 nM.)
8 | Cc1cc(N(C)C)nc(N[C@H]2CC[C@@H](CNC(=O)c3ccc(OC(F)(F)F)cc3)CC2)n1 [compound 2760] | 3 (Class 3 The value of percent of control at 10^−7 M was more than 60% or the value of IC50 was more than 200 nM.)
9 | Cc1cc(N(C)C)nc(N[C@H]2CC[C@@H](CNC(=O)c3ccc(C#N)cc3)CC2)n1 [compound 2761] | 3 (Class 3 The value of percent of control at 10^−7 M was more than 60% or the value of IC50 was more than 200 nM.)
10 | Cc1cc(N(C)C)nc(N[C@H]2CC[C@@H](CNC(=O)c3ccc(Br)cc3)CC2)n1 [compound 2762] | 1 (Class 1: The value of percent of control at 10^−7 M was less than 40% or the value of IC50 was less than 50 nM.)
11 | Cc1cc(N(C)C)nc(N[C@H]2CC[C@@H](CNC(=O)c3ccc(Br)c(C)c3)CC2)n1 [compound 2763] | 1 (Class 1: The value of percent of control at 10^−7 M was less than 40% or the value of IC50 was less than 50 nM.)
12 | Cc1cc(N(C)C)nc(N[C@H]2CC[C@@H](CNC(=O)c3ccc(F)c(Cl)c3)CC2)n1 [compound 2764] | 1 (Class 1: The value of percent of control at 10^−7 M was less than 40% or the value of IC50 was less than 50 nM.)
13 | Cc1cc(N(C)C)nc(N[C@H]2CC[C@@H](CNC(=O)c3ccc(C(F)(F)F)c(F)c3)CC2)n1 [compound 2765] | 2 (Class 2: The value of percent of control at 10^−7 M was from 40% to 60% or the value of IC′50 was from 50 nM to 200 nM.)
14 | Cc1cc(N(C)C)nc(N[C@H]2CC[C@@H](CNC(=O)c3cc(Cl)cc(Cl)c3)CC2)n1 [compound 2766, 3,5-dichloro-N-[(cis-4-{[4-(dimethylamino)-6-methylpyrimidin-2-yl]amino}cyclohexyl)methyl]benzamide] | 2 (Class 2: The value of percent of control at 10^−7 M was from 40% to 60% or the value of IC′50 was from 50 nM to 200 nM.)
15 | Cc1cc(N(C)C)nc(N[C@H]2CC[C@@H](CNC(=O)c3ccc(Cl)c(Cl)c3)CC2)n1 [compound 2767] | 2 (Class 2: The value of percent of control at 10^−7 M was from 40% to 60% or the value of IC′50 was from 50 nM to 200 nM.)
